The subject of one experiment is MCF7. The experiment can be described thus: cells. The note with it: Homo sapiens, MCF7, 24 h.
The target of the next experiment is Carbonic anhydrase 9 (Homo sapiens, UniProt Q16790).

Description for Carbonic anhydrase 9: Inhibition of human recombinant CA9 preincubated for 15 mins prior to testing by stopped flow CO2 hydrase assay
Description for MCF7: Cytotoxicity against human MCF7 cells assessed as cell survivability after 24 hrs by crystal violet staining based microscopic analysis

Regarding `CN(C)c1ccc(-c2nc(NNc3csc(Nc4ccc(S(N)(=O)=O)cc4)n3)[nH]c(=O)c2C#N)cc1`, the IC50 with MCF7 turned out to be 89.7 µM. `NS(=O)(=O)c1ccc(Nc2nc(Nc3ccc(C(=O)O)cc3)cs2)cc1`: at Carbonic anhydrase 9, affinity was put at a Ki of 0.0088 µM. The IC50 in the experiment on MCF7 turned out to be 22.1 µM. Molecule `NS(=O)(=O)c1ccc(Nc2nc(NN3C(=O)/C(=C/c4ccc(Cl)cc4)N=C3c3ccccc3)cs2)cc1` showed a Ki at Carbonic anhydrase 9 of 0.0292 µM. In the experiment on MCF7, this molecule registered a half-inhibitory concentration (IC50) of more than 150 µM. The corresponding values for `NS(=O)(=O)c1ccc(Nc2csc(Nc3ccc(S(N)(=O)=O)cc3)n2)cc1` are 0.0073 µM and 21.5 µM. In the case of `N#Cc1c(-c2ccc(Cl)cc2)nc(Sc2csc(Nc3ccc(S(N)(=O)=O)cc3)n2)[nH]c1=O`, in the experiment with MCF7, the 50% inhibitory concentration (IC50) came out at 86.6 µM. At Carbonic anhydrase 9, `NC(N)=NS(=O)(=O)c1ccc(N/N=C2\SC(Nc3ccc(S(N)(=O)=O)cc3)=NC2=O)cc1` returned an inhibition constant (Ki) of 0.0085 µM. In the experiment with MCF7, half-maximal inhibition (IC50) required 11.9 µM. Take `NS(=O)(=O)c1ccc(Nc2nc(Nc3ccc(F)cc3)cs2)cc1`: the Ki at Carbonic anhydrase 9 was 0.0056 µM. Also, it took 12 µM to reach half-maximal inhibition in the experiment with MCF7 (IC50). On to `N#Cc1c(-c2ccccc2)nc(Sc2csc(Nc3ccc(S(N)(=O)=O)cc3)n2)[nH]c1=O`, for which the IC50 in the experiment with MCF7 was more than 150 µM. On the same count and under the same terms, the result for `NS(=O)(=O)c1ccc(Nc2nc(NN3C(=O)/C(=C/c4ccccc4)N=C3c3ccc(Cl)cc3)cs2)cc1` reads more than 150 µM. Still for that read-out and setting: the result for `NS(=O)(=O)c1ccc(NC2=NC(=O)/C(=N/Nc3ccc(Cl)cc3)S2)cc1` reads 10.7 µM. As to `NS(=O)(=O)c1ccc(NC2=NC(=O)/C(=N/Nc3ccc(C(=O)O)cc3)S2)cc1`, the Ki at Carbonic anhydrase 9 was 0.0064 µM. In the experiment with MCF7, this molecule had a concentration for half-maximal inhibition (IC50) of 5.45 µM.

On to `CN(C)c1ccc(/C=C2\N=C(c3ccccc3)N(Nc3csc(Nc4ccc(S(N)(=O)=O)cc4)n3)C2=O)cc1`, for which, in the experiment on MCF7, the half-inhibitory concentration (IC50) was found to be 38.9 µM. In the experiment on MCF7, `NS(=O)(=O)c1ccc(Nc2nc(NN3C(=O)/C(=C/c4ccccc4)N=C3c3ccccc3)cs2)cc1` came in with an IC50 of 45.9 µM. On Carbonic anhydrase 9, `NS(=O)(=O)c1ccc(N/N=C2\SC(Nc3ccc(S(N)(=O)=O)cc3)=NC2=O)cc1` returned a Ki of 0.0058 µM. The molecule further gave an IC50 in the experiment on MCF7 of 2.79 µM. `NS(=O)(=O)c1ccc(Nc2nc(NN3C(=O)/C(=C/c4ccc(Cl)cc4)N=C3c3ccc(Cl)cc3)cs2)cc1`: in the experiment on MCF7, half-maximal inhibition (IC50) required 136 µM. On to `NS(=O)(=O)c1ccc(Nc2nc(N3CCCCC3)cs2)cc1`, for which affinity on Carbonic anhydrase 9 was put at a Ki of 0.0067 µM. The half-maximal inhibitory concentration (IC50) in the experiment on MCF7 worked out at 24.3 µM. The like results for `N#Cc1c(-c2ccccc2)nc(NNc2csc(Nc3ccc(S(N)(=O)=O)cc3)n2)[nH]c1=O` were, in that order, 0.0065 µM and more than 150 µM.

In turn, `CN(C)c1ccc(-c2nc(Sc3csc(Nc4ccc(S(N)(=O)=O)cc4)n3)[nH]c(=O)c2C#N)cc1` displayed an IC50 with MCF7 of 85 µM.

`CN(C)c1ccc(/C=C2\N=C(c3ccc(Cl)cc3)N(Nc3csc(Nc4ccc(S(N)(=O)=O)cc4)n3)C2=O)cc1` showed an IC50 in the experiment with MCF7 of 44.5 µM. On the same count and under the same terms, the result for `N#Cc1c(-c2ccc(Cl)cc2)nc(NNc2csc(Nc3ccc(S(N)(=O)=O)cc3)n2)[nH]c1=O` reads more than 150 µM. As to `O=c1[nH]cc(F)c(=O)[nH]1` [FLUOROURACIL], half-maximal inhibition with MCF7 (IC50) was put at 11.1 µM.

The values are drawn from ChEMBL document CHEMBL3808361, “Synthesis of 4-(thiazol-2-ylamino)-benzenesulfonamides with carbonic anhydrase I, II and IX inhibitory activity and cytotoxic effects against breast cancer cell lines” (Bioorg Med Chem, 2016).
